SMILES strings stand for the structures.

Format in all cases: in vivo, human
The test system of one data set is relapsed/refractory AML. Nature of the data set: Study AMLCG 1999, AraC based chemotherapy by CXCR4/CXCR2 expression ratio. Conditions: relapsed/refractory AML subjects. An excerpt: FIG. 11B. Progression free survival (PFS) probabilities over time (days) for relapsed/refractory AML subjects in study AMLCG 1999 receiving AraC based chemotherapy with relative CXCR4/CXCR2 expression ratios.

A further data set deals with relapsed/refractory PTCL. Briefly: Tipifarnib in relapsed/refractory PTCL patients with available GEP. Conditions: of 13 highly advanced relapsed/refractory PTCL patients with available GEP. The text has this: (§1) CXCL12 expression alone or as a ratio of the expression to its receptor CXCR4 predicted complete response to tipifarnib treatment (p=0.08, p=0.001) (FIG. 20A). CXCL12 and the CXCL12/CXCR4 ratio also were predictive of 2 partial responses (PR) observed in 13 highly advanced relapsed/refractory PTCL patients with available GEP (p=0.009, p=0.0007) (FIG. 20B). Four objective responses and 1 tumor lysis syndrome were reported in 17 tipifarnib-treated CMML subjects with available pre-treatment BM gene expression data (FIG. 20C). CXCL12 expression (p=0.07) and the CXCL12/CXCR4 ratio (p=0.03) were predictive of those events (FIG. 20C). Only 3 CRs were reported in 58 patients with available BM gene expression data in study INT-17.

Data set [1] concerns newly diagnosed elderly patients with poor risk AML. Nature of the data set: Phase 2 study CTEP-20 of tipifarnib. How it is done:
(§2) Clinical studies with tipifarnib were performed in newly diagnosed elderly patients with poor risk AML (CTEP-20, Phase 2) and relapsed and refractory AML (INT-17, Phase 2). Patient selection in these studies was not based on genetic markers. Anecdotal evidence of tipifarnib single agent activity was reported. […] Median OS in the overall study was 107 days for the Tipifarnib group and 109 days for the BSC group in AML301.
FIG. 7. (A) PFS probabilities of previously untreated elderly or unfit AML subjects with a high CXCR4/CXCR2 ratio versus the rest of the patients enrolled in study CTEP-20. Outcome and expression data are available for 34 study subjects. Median survival of subjects with a bone marrow CXCR4/CXCR2 expression ratio in the upper quartile was 406 days versus 67 days in quartiles 1st-3rd, HR=0.44, p=0.09. Median overall PFS was 84 days. (B) Survival probabilities of previously untreated elderly or unfit AML subjects with a high CXCR4/CXCR2 ratio versus the rest of the patients in study CTEP-20. Median survival of subjects with a bone marrow CXCR4/CXCR2 expression ratio in the upper quartile was 728 days versus 179 days in quartiles 1st-3rd, HR=0.26, p=0.07. Median overall survival was 233 days.

Data set [2] deals with elderly patients with newly diagnosed, de novo, or secondary AML. Briefly: Ph3 study AML301, tipifarnib versus BSC. How it is done:
as §2
AML patients with low percentage of circulating blood blasts (<1 and <10%) and high percentage of bone marrow blasts (>40%) receive clinical benefit from tipifarnib treatment in terms of progression free survival (PFS, CTEP20) or survival (AML301). […] AML301 patients N=82 (18% of study size), HR=0.58, 109 (BSC) vs 201 (tipifarnib) days, P=0.019.
FIGS. 3A-H show results from a clinical tipifarnib trial for subsets of elderly or frail AML patients (AML-301) with varying degrees of neutropenia. […] FIGS. 3B-3F show survival probabilities in AML patient subsets with WBCs>2.1×10^9 cells/L and ANC<1.2×10^9 cells/L (FIG. 3B), ANC<1.0 (FIG. 3C), ANC<0.8 (FIG. 3D), ANC<0.6 (FIG. 3E) and ANC<0.4 (FIG. 3F).

Another data set deals with relapsed/refractory CMML. Nature of the data set: Tipifarnib-treated CMML subjects (study TIP-004). Conditions: of 17 CMML subjects with available pre-treatment BM gene expression data.
From the text: FIG. 10B. Progression free survival (PFS) probabilities over time (days) for relapsed/refractory CMML subjects in study TIP-004 receiving tipifarnib with relative CXCR4/CXCR2 expression ratios. CMML patients having higher CXCR4/CXCR2 expression ratios responded better to tipifarnib treatment than those having lower CXCR4/CXCR2 expression ratios.
as §1

Data set [3] has as its system relapsed and refractory AML. Nature of the data set: Phase 2 study INT-17 of tipifarnib. The protocol: as §2
FIGS. 6A and 6B show graphs illustrating results from a tipifarnib trial with relapsed or refractory AML subjects (INT-17 R/R AML). […] The bone marrow of refractory AML subjects was generally found to express low levels of CXCL12. A small subset of subjects (˜15%) presented high levels of CXCR4, bone marrow homing of tumor cells and sensitivity to tipifarnib. FIG. 6A illustrates relative counts of blood blasts in relapsed or refractory AML patients stratified based on CXCR4 expression levels. […] FIG. 6B illustrates PFS probabilities for relapsed or refractory AML subjects stratified based on CXCR4 expression levels. AML subjects overexpressing CXCR4 (N=8; median PFS=143 days) had better clinical outcomes than AML subjects with relatively lower levels of CXCR4 expression (N=49; median PFS=29 days).
CXCR4/CXCR2 ratio data were available for 57 subjects who experienced an overall survival of 87 days. […]

Take `Nc1ccn([C@@H]2O[C@H](CO)[C@@H](O)[C@@H]2O)c(=O)n1` [AraC]: in the data set on relapsed/refractory AML, the “PFS response of patients with higher versus lower CXCR4/CXCR2 expression ratios” value was “no differently”.

With `Cn1cncc1[C@@](N)(c1ccc(Cl)cc1)c1ccc2c(c1)c(-c1cccc(Cl)c1)cc(=O)n2C` [tipifarnib], the “partial responses (PR), number of patients” value in the data set on relapsed/refractory PTCL was found to be 2. Also, the “Median survival (PFS panel A)” value in data set [1] (CXCR4/CXCR2 expression ratio quartiles 1st-3rd) was found to be 67 days. The “best responses of progression of disease (PD), number of patients” value in data set [1] (of 34 pts with available BM gene expression data) worked out at 13. In addition, the “HR for survival, upper quartile versus quartiles 1st-3rd of CXCR4/CXCR2 ratio” value in data set [1] (p=0.07) is 0.26. In addition, the “HR for PFS, upper quartile versus quartiles 1st-3rd of CXCR4/CXCR2 ratio” value in data set [1] (p=0.09) was 0.44. Moreover, the “hazard ratio, tipifarnib versus reference therapy” value in data set [2] (ANC/WBC<0.3 and marrow blasts >60%, N=110, P=0.08) is given as 0.67. Also, in data set [2] (ANC/WBC<0.4, WBC>2, platelets >20, N=135, P=0.046), the “hazard ratio, tipifarnib versus BSC” value turned out to be 0.7. The “survival probability versus Best Supportive Care” value in data set [2] (no marrow homing subset) is given as “no effect”. Also, the “HR, tipifarnib versus BSC” value in data set [2] (subset with bone marrow blasts >40% and peripheral blood blasts <10%, N=82, P=0.019) was 0.58. Also, the “tumor lysis syndrome, number of subjects” value with relapsed/refractory CMML was 1. Also, in data set [3] (of 58 patients with available BM gene expression data), the “CRs, number of patients” value is 3. Also, in data set [3] (p=0.04), the “HR, 5th quintile of CXCR4/CXCR2 ratio versus rest of the subjects” value came out at 0.52.
